Measurements as given in US8759073B2, “Method for effectively controlling harmful organisms in large-scale culture of microalgae” (ENN Science & Technology Development Co., Ltd., priority 2009, dated 2014).
“Also recorded” adds a separate entry of the source.

What was measured:
[1] = system: diatom; assay: Control of diatom contamination in culture of Chlorococcum sp., microscope examination; format: cell-based; conditions: Example 8
Source text: Chlorococcum sp. […] Modified BG11 medium (see Table 3) was used. […] Then air was sufficiently aerated.

[2] = system: Chlorococcum sp.; assay: Growth of cultured algae after treatment, 60 L glass plate reactor
Method: (§1) pH of the normally cultured microalgae is adjusted into various ranges. The growth rate of the microalgae is measured and their appearance is observed under a microscope.
Chlorococcum sp. (obtained from Qingdao Marine Institute) was cultured (pH 8.0-9.0 for the normal culture) in a 60 L glass plate reactor (manufactured by Longfang Jiangchuan plexiglass Co. Ltd., OP=10 cm) under a sunlight film (with a temperature of about 25 °C, a humidity of 60%-80%, and an illumination of 8000-20000 lux). Modified BG11 medium (see Table 3) was used. […] CO2 was aerated continuously. […] Then air was sufficiently aerated, and pH was raised to 7.0-8.0 in 4 hours.
(§2) Chlorococcum sp. (obtained from Qingdao Marine Institute) was cultured in a 60 L glass plate reactor (manufactured by Longfang Jiangchuan plexiglass Co. Ltd., OP=10 cm) under a sunlight film (with a temperature of about 25 °C, a humidity of 60%-80%, and an illumination of 8000-20000 lux) (pH 8.0-9.0 for the normal culture). Modified BG11 medium (see Table 3) was used. […] Then CO2 was aerated and pH was adjusted to 7.0-8.0.
Chlorococcum sp. (obtained from Qingdao Marine Institute) was cultured in a 60 L glass plate reactor (manufactured by Longfang Jiangchuan plexiglass Co. Ltd., OP=10 cm) under a sunlight film (with a temperature of about 25 °C, a humidity of 60%-80%, and an illumination of 8000-20000 lux) (pH 8.0-9.0 for the normal culture). Modified BG11 medium (see Table 3) was used. […] One hour later, CO2 was aerated to saturation (about pH 5.6) for 24 hour continuously. […] Then air was sufficiently aerated.
as §2, with “air” for “CO2”, “sufficiently aerated.” for “aerated and pH was adjusted to 7.0-8.0.”
as §2
Chlorococcum sp. (obtained from Qingdao Marine Institute) was cultured in a 60 L glass plate reactor (manufactured by Longfang Jiangchuan plexiglass Co. Ltd., OP=10 cm) under a sunlight film (with a temperature of about 25 °C, a humidity of 60%-80%, and an illumination of 8000-20000 lux) (pH 8.0-9.0 for the normal culture). Modified BG11 medium (see Table 3) was used.

[3] = system: Spirulina maxima; assay: Growth of cultured algae after treatment, 500 L raceway pond; format: cell-based; conditions: Example 15; 1M ammonia pH 10.0 1 h, saturated CO2 23 h, then air
Method: Modified SM (see Table 2) was used. […] Then air was sufficiently aerated. Twenty-four hours later, the algae could resume to grow.
Modified SM (see Table 2) was used. […] One hour later, CO2 was aerated to saturation for 23 hour continuously (about pH 5.8). […] Then air was sufficiently aerated. Twenty-four hours later, the algae could resume to grow.

[4] = system: Dunaliella tertiolecta; assay: Growth of cultured algae after treatment, 120 L bubbling reactor; format: cell-based; conditions: Example 1; CO2 intermittently pH 6.0-6.5 for 2 days, salinity decreased by 1%
Source text: Salinity was reduced by 1% (e.g. from 9% to 8%) by way of dilution with water. Then air was sufficiently aerated.

[5] = system: Chlorella sp.; assay: Growth of cultured algae after treatment, 320 L bubbling reactor
Method: as §1
(§3) Chlorella sp. (purchased from FACHB collection, Wuhan Aquatic Research Institure, Chinses Academy of Sciences) was cultured in a 320 L bubbling reactor (manufactured by Longfang Jiangchuan plexiglass Co. Ltd., φ300 mm×2 m) out-of-doors under a sunlight film. The culture condition included: a temperature of about 25 °C, a humidity of 60%-80%, and an illumination of 8000-20000 lux. Modified SM (see Table 2) (pH 7.0-9.0 for the normal culture) was used. […] Then, CO2 was aerated to adjust pH to be 7.0-8.0.
Chlorella sp. (purchased from FACHB collection, Wuhan Aquatic Research Institure, Chinses Academy of Sciences) was cultured in a 320 L bubbling reactor (manufactured by Longfang Jiangchuan plexiglass Co. Ltd., φ300 mm×2 m) out-of-doors under a sunlight film. Modified SM medium (see Table 2) (pH 7.0-9.0 for the normal culture) was used. The culture condition included: a temperature of about 25 °C, a humidity of 60%-80%, and an illumination of 8000-20000 lux. […] Then air was sufficiently aerated, and pH was raised to 7.0-7.5 after 4 hours.
Chlorella sp. (obtained from Jinan University) was cultured in a 320 L bubbling reactor (manufactured by Longfang Jiangchuan plexiglass Co. Ltd., φ300 mm×2 m) out-of-doors under a sunlight film (with a temperature of about 25 °C, a humidity of 60%-80%, and an illumination of 8000-20000 lux). Modified SM medium (see Table 2) was used. When Amoeba, Oxyrrhis and ciliate contaminations were observed is with an oil immersion lens (Nikon fluorescent invert microscope Ti series), pH was adjusted to 11.0-11.8 with 1M NaOH. […] Then, CO2 was aerated continuously to saturation (pH 5.6). […] Then air was sufficiently aerated.
as §3, with “film. Modified SM medium (see Table 2) (pH 7.0-9.0 for the normal culture) was used.” for “film.”, “lux.” for “lux. Modified SM (see Table 2) (pH 7.0-9.0 for the normal culture) was used.”, “Then” for “Then,”, “aerated and pH was adjusted” for “aerated”, “to” for “to adjust pH to be”
Chlorella sp. (obtained from Jinan University) was cultured in a 320 L bubbling reactor (manufactured by Longfang Jiangchuan plexiglass Co. Ltd., φ300 mm×2 m) out-of-doors under a sunlight film (with a temperature of about 25 °C, a humidity of 60%-80%, and an illumination of 8000-20000 lux). Modified SM medium (see Table 2) was used. […] Then CO2 was aerated to saturation (pH 5.6) for 24 hours continuously. […] Then air was sufficiently aerated.

[6] = system: Nannochloris sp.; assay: Growth of cultured algae after treatment, 1.5 m^3 glass plate reactor; format: cell-based; conditions: Example 9; CO2 periodically at an interval of 2 hours, 2 days
Method: Nannochloris sp. […] Modified BG11 medium (see Table 4) was used. […] Then CO2 was aerated periodically at an interval of 2 hours (pH ranged within 5.0-8.5).

Structure (SMILES): O=C=O [CO2, carbon dioxide]
- diatom, result of microscope examination ([1]; CO2 aerated continuously to saturation (about pH 5.6), thirty-six hours): some diatom lost intracellular pigment and only empty shells were left
- residual contaminating diatom after air aeration ([1]; saturated CO2 36 hours, then air sufficiently aerated): reduced activity, grew slowly, and would not become dominant algae; also recorded: grew slowly
- growth of the algae [2]: rarely affected
- time until algae started to grow after recovery of pH7.0 or above ([2]; pH 7): 8 hours
- time until algae resumed to grow after air aeration ([2]; pH 9): Eighteen
- time until algae resumed to grow after air aeration [3]: Twenty-four
- impact on the growth of algae [4]: not affected essentially; also recorded: little impact on the growth of algae
- growth of the algae [5]: almost not affected
- time until algae started to grow (FIG. 4) [5]: About 28 hours
- time until algae started to grow after recovery of pH7.0 or above ([5]; pH 7): 24 hours
- time until algae resumed to grow after air aeration ([5]; pH 9): Twenty-four
- growth rate of the algae [6]: rarely affected; also recorded: not affected
